Test results published in patent US12318381B2, “Treatment for non-alcoholic fatty liver disease” (1GLOBE BIOMEDICAL CO., LTD., priority 2018, dated 2025).
Entries after “also recorded” stand apart in the source; their conditions may differ.

Key:
human HepG2 liver cells = assay: Intracellular triglyceride content in palmitoleic acid-treated HepG2 cells (biochemical kit); assay type: cell-based; conditions: HepG2, 1.6 mM palmitoleic acid in EMEM, 48 hours, 0.1 μM compound vs DMSO (FIG. 1A)
Procedure: A series of in vitro experiments were first carried out with various human hepatocyte cultures. For example, human HepG2 liver cells were incubated with 1.6 mM palmitoleic acid in EMEM medium for 48 hours in the presence of 0.1 μM Compound 13-3 or control vehicle, DMSO. After 48 hours, cells were collected and the intracellular triglyceride content was measured by a biochemical kit (Biovision, Mountain View, Calif.) as described in Derdak et al. J Hepatol. 2013; 58(4):785-91.

HFD-fed mice [1] = assay: High-fat diet (HFD)-induced obesity/NAFLD mouse model: body weight, food/water intake, liver size and weight; assay type: in vivo
Excerpt: (§1) In order to assess the in vivo efficacy of Compound 13-3 in improving obesity, and ameliorating NAFLD/NASH, a previously used modified high-fat diet (HFD) was employed to induce obesity and severe fatty liver disease in mice (Derdak et al. Journal of Hepatology 2013; 58(4):785-91).
(§2) Five-week-old male, C57Bl/6J mice (12-18 per group, Jackson Laboratory, Bar Harbor, Me.) were fed ad libitum with a modified high fat or control diet (Bioserv, Frenchtown, N.J.) for 15 weeks. […] We had verified the efficacy of this diet to induce obesity and NAFLD in various pilot studies. At the end of the 15-week long feeding regimen, this diet caused substantial ALT elevation—indicative of liver injury—in these mice.
(§3) After 15 weeks on the modified HFD, the mice were put on a Compound 13-3 (or control vehicle) dosing regimen, in which the introductory 5 mg/kg (p.o., t.i.w. for the first 3 weeks) dose was followed by the administration of 10 mg/kg (p.o., t.i.w. for additional 5 weeks) therapeutic dose. During the course of the drug treatment, the animals were monitored daily for changes in body weight, food/water intake, and adverse effects.

HFD-fed mice [2] = assay: HFD-induced NAFLD mouse model: liver histology (H&E, Masson's trichrome, PAS) and NAFLD Activity Score; assay type: in vivo
Excerpt: as §1, §2, §3
The pronounced efficacy of Compound 13-3 in improving NAFLD was further supported by microscopical analysis of the harvested liver samples (FIG. 4).
Microscopic evaluation of hematoxylin-eosin (H&E) stained liver slides was performed by an expert pathologist to determine the effect of the drug treatment on the NAFLD Activity Score (NAS), as a primary read-out for the anti-NAFLD efficacy of Compound 13-3. The composite NAS score is frequently used to describe the severity of the characteristic pathological changes seen in NAFLD/NASH (Kleiner D E et al. Hepatology. 2005; 41(6):1313-21), including steatosis, lobular inflammation (FIG. 5A), and hepatocellular ballooning (FIG. 5B).

HFD-fed mice [3] = assay: HFD-induced NAFLD mouse model: hepatic triglyceride biochemical assay; assay type: in vivo; conditions: HFD-fed mice liver (FIG. 6A)
Excerpt: as §2, §3
(§4) This biochemical change is very important, as ectopic fat accumulation has been linked to lipotoxicity and hepatocellular injury. The extent of liver injury has been characterized by measuring serum levels of two liver enzymes ALT (FIG. 6B) and AST (FIG. 6C) (UMASS Mouse Phenotyping Center Analytical Core, Worcester, Mass.) at the time of euthanasia.

HFD-fed mice [4] = assay: HFD-induced NAFLD mouse model: serum ALT and AST levels; assay type: in vivo
Excerpt: as §2, §3, §4

collagen type I, alpha 1 = assay: Hepatic gene expression by quantitative real-time PCR in HFD-fed mice; assay type: in vivo, mouse; conditions: HFD-fed mice liver, quantitative real-time PCR (FIG. 5D)
Excerpt: as §2, §3
Therefore, pharmaceutical compositions based on Compound 13-3 and other compounds of the invention will likely provide a viable treatment of NAFLD and especially NASH.

ACOX1 = assay: as above; assay type: in vivo, mouse; conditions: HFD-fed mice (FIG. 7B)
Excerpt: as §2, §3
(§5) To study the effect of Compound 13-3 on the mediators of fatty acid metabolism, we employed quantitative real-time PCR using commercially available probes to assess mediators of fatty acid metabolism in HFD-fed mice treated with Compound 13-3. As shown in FIGS. 7A-7E, gene expression of some key mediators of fatty acid oxidation such as CPT1a (FIG. 7A), an enzyme that catalyzes the rate-limiting step of fatty acid oxidation in the mitochondrion, of peroxisomal ACOX1 (FIG. 7B) and of FGF21 (FIG. 7C), a recently described hepatokine with pronounced anti-NAFLD and hepatoprotective efficacy (see, Maratos-Flier E Exp Cell Res (2017) 360(1): 2-5; Sonoda J, et al. Horm Mol Biol Clin Investig (2017) 30(2); Xu J, et al. Diabetes (2009) 58(1):250-259; Li H, et al. Diabetes (2012) 61(4): 797-806; Desai B N, et al. Mot Metab (2017) 6(11):1395-1406), were increased by Compound 13-3 treatment in HFD-fed mice. Many of the beneficial metabolic effects are linked to FGF21, and FGF21 itself may further enhance fatty acid oxidation (Xu J, et al. Diabetes (2009) 58(1):250-259; Li H, et al. Diabetes (2012) 61(4):797-806). We, therefore, also measured serum levels of FGF21 using a commercially available ELISA kit.

CPT1a = assay: as above; assay type: in vivo, mouse; conditions: HFD-fed mice (FIG. 7A)
Excerpt: as §2, §3, §5

FGF21 [5] = assay: as above; assay type: in vivo, mouse; conditions: HFD-fed mice (FIG. 7C)
Excerpt: as §2, §3, §5

FGF21 [6] = assay: Serum FGF21 ELISA in HFD-fed mice; assay type: in vivo, mouse; conditions: ELISA (FIG. 7D)
Excerpt: as §2, §3
To study the effect of Compound 13-3 on the mediators of fatty acid metabolism, we employed quantitative real-time PCR using commercially available probes to assess mediators of fatty acid metabolism in HFD-fed mice treated with Compound 13-3. […] We, therefore, also measured serum levels of FGF21 using a commercially available ELISA kit.

leptin = assay: Serum leptin ELISA in HFD-fed mice; assay type: in vivo, mouse; conditions: ELISA (FIG. 7E)
Excerpt: as §2, §3
A suppressive effect of exogenous FGF21 on circulating leptin levels has been previously observed in non-human primates. Accordingly, we also measured serum leptin levels using a commercially available ELISA kit.

CD36 = assay: Hepatic gene expression in HFD-fed mice; assay type: in vivo, mouse; conditions: HFD-fed mice liver (FIG. 8D)
Excerpt: as §2, §3
(§6) FGF21 has also been linked to the suppression of adipogenesis by suppressing hepatic PPAR-γ, FABP4 and CD36 (Xu J, et al. Diabetes (2009) 58(1):250-259). In view of this, we next assessed the expression of these mediators of adipogenesis in the livers of Compound 13-3-treated, HFD-fed mice.

FABP4 = assay: Hepatic gene expression in HFD-fed mice; assay type: in vivo, mouse; conditions: HFD-fed mice liver (FIG. 8C)
Excerpt: as §2, §3, §6

PPAR-γ [7] = assay: Hepatic gene expression in HFD-fed mice; assay type: in vivo, mouse; conditions: HFD-fed mice (FIG. 8A)
Excerpt: as §2, §3, §6

PPAR-γ [8] = assay: Hepatic protein expression by Western-blotting and densitometry in HFD-fed mice; assay type: in vivo, mouse; conditions: Western-blotting and densitometry (FIG. 8B)
Excerpt: as §2, §3, §6

SMILES: CCN(CC)CCNC(=O)c1c(C)[nH]c(/C=C2\C(=O)Nc3ccc(-c4csc(-c5ccccc5)n4)cc32)c1C [Compound 13-3]
- palmitoleic acid-induced increase of intracellular triglyceride content (human HepG2 liver cells): markedly suppressed
- change in body weight during treatment (HFD-fed mice [1]; HFD-fed C57Bl/6J mice, 5 mg/kg p.o. t.i.w. 3 weeks then 10 mg/kg p.o. t.i.w. 5 weeks (FIG. 2A)): not only prevented additional weight gain in the mice on HFD, but also triggered a gradual weight loss
- food intake (HFD-fed mice [1]; HFD-fed mice, 5 mg/kg then 10 mg/kg p.o. t.i.w. (FIG. 2C)): not linked to decreased food intake
- water intake (HFD-fed mice [1]; HFD-fed mice, 5 mg/kg then 10 mg/kg p.o. t.i.w. (FIG. 2D)): not linked to decreased food intake or water intake
- size of the liver (macroscopic overview at euthanasia) (HFD-fed mice [1]; HFD-fed mice, 5 mg/kg then 10 mg/kg p.o. t.i.w., vs vehicle (FIG. 2E, 3A)): markedly decreased the size of the liver; also recorded: essentially comparable to the lean animals
- macroscopic appearance of the liver (HFD-fed mice [1]; HFD-fed mice, vs vehicle (pale yellow enlarged liver) (FIG. 2E)): healthier, darker brown appearance
- fatty metamorphosis / ectopic fat accumulation in the liver (HFD-fed mice [1]; HFD-fed mice, vs vehicle-treated littermates (FIG. 3A-3C)): markedly decreased or prevented ectopic fat accumulation
- liver weight (HFD-fed mice [1]; HFD-fed mice, vs vehicle-treated littermates, at euthanasia (FIG. 3A, 3B)): profoundly decrease liver weight
- HFD-induced steatosis and lobular inflammation (NAS components) (HFD-fed mice [2]; HFD-fed mice (FIG. 5A)): suppressed
- HFD-induced hepatocellular ballooning (NAS component) (HFD-fed mice [2]; HFD-fed mice (FIG. 5B)): eliminated
- hepatic glycogen depletion (Periodic Acid Schiff staining) (HFD-fed mice [2]; HFD-fed mice, vehicle group depleted in zones 2 & 3 (FIG. 4 bottom row)): evidence for hepatic depletion of glycogen was not present
- fibrosis (Masson's trichrome staining) (HFD-fed mice [2]; HFD-fed mice, vehicle group showed stage 1 fibrosis (FIG. 4 middle row)): did not exhibit any signs of fibrosis
- H&E histology: disorganized liver architecture, micro- and macrovesicular steatosis, hepatocyte ballooning and inflammation (HFD-fed mice [2]; HFD-fed mice, vs vehicle (FIG. 4 top row)): markedly suppressed
- NAFLD Activity Score (NAS) (HFD-fed mice [2]; HFD-fed mice, vs vehicle-treated littermates (FIG. 5C)): substantially lower
- hepatic triglyceride content (HFD-fed mice [3]): prevented the HFD-induced steatosis
- serum ALT (HFD-fed mice [4]; at euthanasia (FIG. 6B)): suppresses ALT elevation
- serum AST (HFD-fed mice [4]; at euthanasia (FIG. 6C)): not affected
- serum AST:ALT ratio (HFD-fed mice [4]; vs vehicle (FIG. 6D)): largely prevent the drastic decrease
- hepatic production (gene expression) of collagen type I, alpha 1 (collagen type I, alpha 1): marked decrease
- ACOX1 gene expression (ACOX1): increased
- CPT1a gene expression (CPT1a): increased
- FGF21 gene expression (FGF21 [5]): pronounced elevation
- serum FGF21 level (FGF21 [6]): increased
- serum leptin level (HFD-induced increase) (leptin): significantly decreased
- CD36 gene expression (CD36): decreased
- FABP4 gene expression (FABP4): decreased
- PPAR-γ gene expression in the liver (PPAR-γ [7]): suppressed
- PPAR-γ protein expression in the liver (PPAR-γ [8]): suppressed
